Assay in all cases: NCI tumour cell line growth inhibition, 48 h
The test system of assay [1] is IGROV1 ovarian.
Assay [2] relates to DU-145 prostate.
Assay [3] concerns SN12C renal.
In assay [4] the test system is EKVX NSCLC.
Assay [5] deals with UACC-62 melanoma.
Assay [6] relates to K-562 leukemia.
Assay [7] has as its system KM12 colon.
The test system of assay [8] is MOLT-4 leukemia.
Assay [9] concerns UO-31 renal.
Assay [10] deals with SF-295 CNS.

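Exposure lasted 48 hours, with cells grown in 96-well plates and compounds tested at five concentrations. Here, GI50 denotes the concentration required for 50% inhibition of growth. Definition used: TGI = concentration required for complete inhibition of growth.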

With `Clc1ccc(C2CC(c3cccc(Nc4ccncc4)c3)=NN2c2cc(Cl)cc(Cl)c2)cc1` (stereo not given), the GI50 in [1] was 1710 nM; in assay [2], 1850 nM; in [3], 1730 nM; in assay [4], 1600 nM; in assay [5] it was 1770 nM; in assay [6] it was 2550 nM. The GI50 in assay [7] was 1790 nM; in assay [8] it was 2170 nM; in assay [9], 1340 nM; in assay [10], 1760 nM. Moreover, the TGI came to 3320 nM in [1]; 3390 nM in assay [2]; 3290 nM in [3]; 3120 nM in [4]; 3290 nM in assay [5]; 6120 nM in assay [6]. Further, the TGI in assay [7] stood at 3380 nM; in assay [8] it was 5010 nM; in assay [9], 2770 nM; in [10], 3230 nM.

(Values after PubChem BioAssay (NCI).)
